# From article PMC9108603, “Microbial Metabolite Inspired β‐Peptide Polymers Displaying Potent and Selective Antifungal Activity” (Advanced Science, 2022)
# Where two headings read alike, the source gives them in different places.
# Key:
# C. neoformans [1] = experiment: MIC assay (in vitro antifungal assay); type: cell-based; conditions: Cryptococcus neoformans, 48 h
# Method: (§1) In vitro antifungal assays. The MIC assays for C. albicans (K1, SC5314, Gu5, ATCC90028, R01, R02, R03 and R04 strains) and C. neoformans (H99, MYA737 and JEC21 strains) were conducted according to a previously described protocol. The cultured fungal cells were collected at 2.5 × 10^3 CFU/mL in RPMI 1640 medium to give the working suspension. Two- […]
# (§2) plate to give 50 µL compound solution in each well. Then 50 µL of the cell suspension was added to each well. Wells containing cells in RPMI without any polymer or antifungal drug were used as drug-free controls, and wells containing RPMI medium only were used as cell-free controls. The plate was gently stirred for 10 seconds and then incubated at 30 °C. After C. albicans and C. neoformans cells were incubated for 24 h and 48 h, respectively, fungal cell growth was checked visually. […]
# C. albicans [2] = experiment: MIC assay (in vitro antifungal assay); type: cell-based, Candida albicans
# Method: as §1
# as §2, with “Then” for “plate to give 50 µL compound solution in each well. Then”
# C. albicans (R02 strain) = experiment: microbe, parasite or virus in culture; type: cell-based, Candida albicans; conditions: for MIC50: Candida albicans
# Method: Drug resistance studies. Drug resistance was induced by treating the C. albicans (R02 strain) repeatedly with antifungal agents. […]
# albicans were tested for 30 passages of growth, which is long enough and adopted by many studies. C. albicans exposed to the 1/2 MIC concentration at the particular passage were re-grown to a logarithmic growth phrase and re-used for the subsequent passage’s MIC measurement for the same antifungal agent. Drug-resistant behavior of C. albicans was evaluated by recording the changes in the MIC compared to the original passage. All measurements were performed in duplicates. […]
# C. neoformans [3] = experiment: MFC assay, plating after the MIC test; type: cell-based; conditions: Cryptococcus neoformans, 48 h; also: kills > 99.9%
# Method: as §1
# as §2, with “Then” for “plate to give 50 µL compound solution in each well. Then”, “visually. The MIC values were identified as the lowest concentration” for “visually.”
# (§3) The MFC assay for Candida and Cryptococcus was conducted after the MIC test.
# (§4) An aliquot of 3 µL premixed suspension from each well was plated on the yeast extract-peptone-dextrose (YPD) agar. The plates were incubated at 30 °C for 24 h and 48 h, respectively, for C. albicans cells and C. neoformans cells. Then the plate was inspected visually for colony formation. […]
# C. albicans [4] = experiment: MFC assay, plating after the MIC test; type: cell-based; conditions: Candida albicans; also: kills > 99.9%
# Method: as §1
# as §2, with “Then” for “plate to give 50 µL compound solution in each well. Then”, “visually. The MIC values were identified as the lowest concentration” for “visually.”
# as §3, §4
# various mammalian cells = experiment: Cytotoxicity, MTT assay, summary over cell types; type: cell-based; conditions: NIH 3T3, HUVEC, RAW264.7, LO2, COS7, NCM‐460, 24 h
# Method: (§5) Cytotoxicity assay. Cytotoxicity tests were performed on NIH 3T3 fibroblast cells, endothelial cells (HUVEC), macrophage (RAW264.7), liver cells (LO2), kidney cells (COS7) and enterocyte (NCM-460) using MTT assay. Cells were cultured in DMEM supplemented with 10% FBS, 5% penicillin, 2 mM L-glutamine and incubated at 37 °C in 5% CO 2. Cells were harvested and seeded onto 96-well plates at a density of 1.0 × 10^4 cells per well and incubated for 24 h. On each plate, wells containing growth medium only and cells in growth medium without any antifungal agent were used as the negative and positive control, […]
# (§6) concentrations ranging from 800 to 1.6 μg/mL. Medium in each cell-containing well was replaced with 100 μL of the corresponding polymer solution, and the plates were incubated at 37 °C for 24 h. Then, the solution in each well was switched to 100 µL MTT solution (1 mg/mL) and the plate was incubated in the dark at 37 °C for 4 h. […] Then 85 µL of the supernatant from each well was transferred to the corresponding well in a new plate, followed by absorbance measurement at 570 nm on a plate reader. […] The percentage of cell viability in each test well, relative to the positive control (which defines 100%) w as calculated from [% fibroblast growth = (A polymer – Ablank)/(Acontrol – A blank) × 100]. […]
# human red blood cells = experiment: Hemolysis assay; conditions: human RBCs in TBS pH 7.2, 37 °C, 1 h, OD 405 nm, 2000 to 15.6 μg/mL, Triton X-100 as 100%
# Method: (§7) aforementioned antifungal assay. Gram-positive bacteria ( S. aureus ATCC 6538, S.
# The positive controls used in
# Then, 100 μL of the RBC working
# Molecular Devices Emax precision microplate reader. Measurements were performed in duplicate and repeated on three different days. The percentage of hemolysis at each polymer […]
# and plotted against polymer concentration to give the dose-response curves for hemolysis for each polymer. The HC 10 value for each polymer was defined as the polymer concentration to cause 10% lysis of RBCs. All measurements were performed with three replicates.
# Cytotoxicity assay. Cytotoxicity tests were performed on NIH 3T3 fibroblast cells, endothelial cells (HUVEC), macrophage (RAW264.7), liver cells (LO2), kidney cells (COS7) and enterocyte (NCM-460) using MTT assay. Cells were cultured in DMEM supplemented with 10% FBS, 5% penicillin, 2 mM L-glutamine and incubated at 37 °C in 5% CO 2. […]
# concentrations ranging from 800 to 1.6 μg/mL. […] Then 85 µL of the supernatant from each well was transferred to the corresponding well in a new plate, followed by absorbance measurement at 570 nm on a plate reader. […] The percentage of cell viability in each test well, relative to the positive control (which defines 100%) w as calculated from [% fibroblast growth = (A polymer – Ablank)/(Acontrol
# [5] = system: endothelial cells (HUVEC); experiment: Cytotoxicity, MTT assay; type: cell-based, human; conditions: 24 h, 37 °C, 800 to 1.6 μg/mL, 50% cell viability
# Method: as §5, §6
# [6] = system: K. pneumoniae ATCC 700603; experiment: Antibacterial MIC test; type: cell-based; conditions: 1.0 × 10^5 CFU/mL in MH medium
# Description: as §7
# E. coli ATCC 25922 = experiment: Antibacterial MIC test; type: cell-based; conditions: 1.0 × 10^5 CFU/mL in MH medium
# Description: as §7
# A. Baumannii ATCC 747 = experiment: Antibacterial MIC test; type: cell-based; conditions: 1.0 × 10^5 CFU/mL in MH medium
# Description: as §7
# [7] = system: Gram‐positive and Gram‐negative bacteria; experiment: Antibacterial MIC test, summary over six bacteria; type: cell-based; conditions: S. aureus, S. epidermidis, B. subtilis, E. coli, A. baumannii, K. pneumoniae
# Description: as §7
# B. subtilis BR151 = experiment: Antibacterial MIC test; type: cell-based; conditions: 1.0 × 10^5 CFU/mL in MH medium
# Description: as §7
# S. aureus ATCC 6538 = experiment: Antibacterial MIC test; type: cell-based; conditions: 1.0 × 10^5 CFU/mL in MH medium
# Description: as §7
# [8] = system: S. epidermidis ATCC 49134; experiment: Antibacterial MIC test; type: cell-based; conditions: 1.0 × 10^5 CFU/mL in MH medium
# Description: as §7
compound,measurement,setting,value
OC(Cn1cncn1)(Cn1cncn1)c1ccc(F)cc1F [fluconazole],MIC50,C. neoformans [1]; read-out: MIC50 (row marked fluconazole*) C. neoformans H99,6.3 µg/mL
same,MIC50,C. neoformans [1]; read-out: MIC50 (row marked fluconazole*) C. neoformans JEC21,12.5 µg/mL
same,MIC50,C. neoformans [1]; read-out: MIC50 (row marked fluconazole*) C. neoformans MYA737,6.3 µg/mL
same,MIC50,"C. albicans [2]; Candida albicans, 24 h, read-out: MIC50 (used for fluconazole) C. albicans Gu5",200 µg/mL
same,MIC50,"C. albicans [2]; Candida albicans, 24 h, read-out: MIC50 (used for fluconazole) C. albicans K1",0.4 µg/mL
same,MIC50,"C. albicans [2]; Candida albicans, 24 h, read-out: MIC50 (used for fluconazole) C. albicans R01",0.4 µg/mL
same,MIC50,"C. albicans [2]; Candida albicans, 24 h, read-out: MIC50 (used for fluconazole) C. albicans R02",0.4 µg/mL
same,MIC50,"C. albicans [2]; Candida albicans, 24 h, read-out: MIC50 (used for fluconazole) C. albicans R03",0.2 µg/mL
same,MIC50,"C. albicans [2]; Candida albicans, 24 h, read-out: MIC50 (used for fluconazole) C. albicans R04",0.2 µg/mL
same,MIC50,"C. albicans [2]; Candida albicans, ATCC90028, 24 h, read-out: MIC50 (used for fluconazole) C. albicans ATCC90028",0.2 µg/mL
same,MIC50,"C. albicans [2]; Candida albicans, SC5314, 24 h, read-out: MIC50 (used for fluconazole) C. albicans SC5314",50 µg/mL
same,MIC,"C. albicans [2]; Candida albicans, read-out: MIC of fluconazole (complete inhibition), all strains of C. albicans",> 200 µg/mL
same,Increase of MIC50 after 30 passages,"C. albicans (R02 strain); C. albicans R02, continuous treatment with 0.5 × MIC50",eightfolds
same,MIC50,C. albicans (R02 strain); read-out: MIC50 after 30 passages,1.6 µg/mL
same,MIC50,C. albicans (R02 strain); read-out: MIC50 before passaging,0.2 µg/mL
same,MFC,C. neoformans [3]; read-out: MFC C. neoformans H99,6.3 µg/mL
same,MFC,C. neoformans [3]; read-out: MFC C. neoformans JEC21,12.5 µg/mL
same,MFC,C. neoformans [3]; read-out: MFC C. neoformans MYA737,6.3 µg/mL
same,MFC,"C. albicans [4]; 24 h, read-out: MFC C. albicans Gu5",> 200 µg/mL
same,MFC,"C. albicans [4]; 24 h, read-out: MFC C. albicans K1",> 200 µg/mL
same,MFC,"C. albicans [4]; 24 h, read-out: MFC C. albicans R01",> 200 µg/mL
same,MFC,"C. albicans [4]; 24 h, read-out: MFC C. albicans R02",> 200 µg/mL
same,MFC,"C. albicans [4]; 24 h, read-out: MFC C. albicans R03",> 200 µg/mL
same,MFC,"C. albicans [4]; 24 h, read-out: MFC C. albicans R04",> 200 µg/mL
same,MFC,"C. albicans [4]; ATCC90028, 24 h, read-out: MFC C. albicans ATCC90028",> 200 µg/mL
same,MFC,"C. albicans [4]; SC5314, 24 h, read-out: MFC C. albicans SC5314",> 200 µg/mL
poly(DL‐diaminopropionic acid) [PDAP5],IC50 over six mammalian cell types (range),various mammalian cells,340 to 800 µg/mL
same,HC10 (concentration to cause 10% hemolysis),human red blood cells,1000 µg/mL
poly(DL‐diaminopropionic acid) [PDAP10],IC50 HUVEC,[5],675 µg/mL
polymyxin B,MIC K. pneumoniae,[6],0.8 µg/mL
same,MIC E. coli,E. coli ATCC 25922,0.2 µg/mL
same,MIC A. baumannii,A. Baumannii ATCC 747,0.2 µg/mL
ε‐poly‐lysine [ε-PL],Effect of increasing K+ on antifungal activity,"C. albicans [2]; K+ up to 20 × 10^−3 M, C. albicans K1",didn't affect
same,"MIC C. albicans K1, standard MIC test in RPMI 1640","C. albicans [2]; Na+ 103 mM, K+ 5.4 mM",400 µg/mL
same,"MIC C. albicans K1, physiological salt concentration","C. albicans [2]; Na+ 150 mM, K+ 5.4 mM",1600 μg/mL
same,"MIC C. albicans K1, Na+ ↑","C. albicans [2]; Na+ 200 mM, K+ 5.4 mM",> 1600 µg/mL
same,MIC against C. albicans (Figure 1a),C. albicans [2]; approximate value printed in the design figure,~ 400 μg/mL
same,MIC against three strains of C. albicans (range),"C. albicans [2]; range over three strains, Figure 2d",200 to 400 µg/mL
same,MIC against the six bacteria (summary),[7],1.6 to 6.3 µg/mL
same,MIC B. subtilis,B. subtilis BR151,1.6 µg/mL
same,MIC K. pneumoniae,[6],6.3 µg/mL
same,MIC E. coli,E. coli ATCC 25922,6.3 µg/mL
same,MIC S. aureus,S. aureus ATCC 6538,3.1 µg/mL
same,MIC A. baumannii,A. Baumannii ATCC 747,6.3 µg/mL
same,MIC S. epidermidis,[8],3.1 µg/mL
